Experimental data as given in PMC10600239, “Selective MCL-1 inhibitor ABBV-467 is efficacious in tumor models but is associated with cardiac troponin increases in patients” (Communications Medicine, 2023).
“And” between values parts separate entries of the source, which are not always exact repeats. Identical values can stand only once. Like-named read-outs stand apart in the source and are kept apart here.

Tests used:
[1] = tested on: H929 cells; test: In vitro cell viability assay (CellTiter-Glo); assay type: cell-based, human
Protocol: All cell lines were grown and treated in RPMI 1640 or Dulbecco’s modified Eagle medium (Sigma, St. Louis, MO) supplemented with 10% fetal bovine serum (Gibco) or 10% human serum (Sigma) and maintained in a humidified incubator at 5% CO2 and 37 °C. DLD-1, MV4-11, NCI-H929 (all ATCC, Manassas, VA, USA) and AMO-1 (DSMZ, Braunschweig, Germany) cells were plated 4000 cells per well in 384-well tissue culture plates and treated with compounds of interest for 24 h at 37 °C, 5% CO2 humidified incubator. Each concentration was tested in duplicate at least 3 separate times. Adherent cells were allowed to adhere overnight prior to treatment. Alternatively, AMO-1 or NCI-H929 cells were treated with ABBV-467 for the indicated contact times (1–24 h) at 37 °C in a 5% CO2 humidified incubator and washed 3 times with compound-free media prior to incubation for the remainder of a 24-h treatment period. Cell viability was subsequently determined using CellTiter-Glo (Promega, Madison, WI, USA) according to the manufacturer’s instructions.
For in vitro viability assays, mean EC50 and EC90 values were determined from the resulting dose-response curves from at least 3 independent experiments, and depict the mean ± standard error of the mean.
(§1) Fig. 2 Apoptosis induced by ABBV-467 is mechanism based and induces cell death in MCL-1-dependent cell lines after short target engagement periods. H929 cells were treated with ABBV-467 in the presence or absence of the pan-caspase inhibitor z-VAD-fmk (50 µM) and the impact on caspase-3/7 activation (a), mitochondrial membrane potential (ΔΨm; b), and apoptosis (c) determined. Alternatively, BAK-deficient SKBR3 cells were treated with ABBV-467 for 24 h and the impact on cell viability compared with the parental cell line, determined by CellTiter-Glo. Inset depicts a western blot of BAK and BAX expression in SKBR3 cell variants using GAPDH as a loading control. Each of the 3 proteins were probed on separate blots (d). Data in (a–d) are presented as the mean ± standard error of the mean. H929 and AMO-1 cells were treated with ABBV-467 at the indicated concentrations and the impact on caspase-3/7 activation and viability (DRAQ7-positive) cells determined over time by Incucyte®. Data are presented as the mean ± standard deviation (e). H929 or AMO-1 cells were cultured in media containing 10% human serum and treated with ABBV-467 for the indicated contact times. Cells were subsequently washed 3 times with drug-free media and incubated in drug-free media for the remainder of the 24-h treatment period at 37 °C before cell viability was determined by CellTiter-Glo. Mean EC50 and EC90 values were determined from the resulting dose-response curves from at least 3 independent experiments, each assessed in quadruplicate, and depict the mean ± standard error of the mean. Presented ABBV-467 dose-response curves in H929 and AMO-1 cells were compiled from at least 3 independent experiments (f).

[2] = tested on: H929 cells; test: Caspase-3/7 activation and viability (DRAQ7) over time by Incucyte; assay type: cell-based, human
Protocol: as §1

## Cc1c(Cl)c2c(Cl)c(C)c1-c1c(-c3ccc(F)cc3)sc3ncnc(c13)O[C@@H](C(=O)O)Cc1cc(ccc1OCc1ccnc(-c3ccc(OC[C@H]4COCCO4)cc3)n1)OC[C@@H](CN1CCN(C)CC1)O2 [ABBV-467]
[1]; Homo sapiens, NCI-H929, 10% human serum, contact time 1 hr, washout, viability at 24 h, read-out: H929 Mean EC50
  EC50: 84.5 nM
[1]; Homo sapiens, NCI-H929, 10% human serum, contact time 2 hr, washout, viability at 24 h, read-out: H929 Mean EC50
  EC50: 61.8 nM
[1]; Homo sapiens, NCI-H929, 10% human serum, contact time 2 hr, washout, viability at 24 h, read-out: H929 Mean EC90
  EC90: 236 nM
[1]; Homo sapiens, NCI-H929, 10% human serum, contact time 4 hr, washout, viability at 24 h, read-out: H929 Mean EC50
  EC50: 18.9 nM
[1]; Homo sapiens, NCI-H929, 10% human serum, contact time 6 hr, washout, viability at 24 h, read-out: H929 Mean EC50
  EC50: 11.7 nM
[1]; Homo sapiens, NCI-H929, 10% human serum, contact time 6 hr, washout, viability at 24 h, read-out: H929 Mean EC90
  EC90: 108 nM
[1]; Homo sapiens, NCI-H929, 24 h, 10% human serum, contact time 24 hr, read-out: H929 Mean EC50
  EC50: 1.5 nM
[1]; Homo sapiens, NCI-H929, 24 h, 10% human serum, contact time 24 hr, read-out: H929 Mean EC90
  EC90: 5.6 nM
[1]; Homo sapiens, NCI-H929, 24 h, read-out: H929 EC50 (nM, 10% FBS), 10% FBS, 24 h continuous treatment
  EC50: 0.4 nM
[1]; Homo sapiens, NCI-H929, NCI-H929, arithmetic mean, read-out: Arithmetic Mean EC50 µM
  EC50: 0.468 nM
[1]; Homo sapiens, NCI-H929, read-out: H929 Mean EC90, 10% human serum, contact time 1 hr, washout, viability at 24 h
  EC90: 458 nM
[1]; Homo sapiens, NCI-H929, read-out: H929 Mean EC90, 10% human serum, contact time 4 hr, washout, viability at 24 h
  EC90: 133 nM
[1]; NCI-H929, individual determinations, read-out: Individual EC50
  EC50: 0.595 nM and 0.693 nM and 0.692 nM and 0.364 nM and 0.531 nM and 0.29 nM and 0.314 nM and 0.373 nM and 0.366 nM and 0.36 nM and 0.313 nM and 0.717 nM and 0.472 nM
[1]; read-out: H929 EC50 (nM, 10% FBS), 10% FBS, 24 h continuous treatment
  EC50: 0.47 nM
[2]; ABBV-467 0.01 nM, 0 hours
  Caspase-3/-7 Activation: 232.365
[2]; ABBV-467 0.01 nM, 1 hours
  Caspase-3/-7 Activation: 224.632
[2]; ABBV-467 0.01 nM, 2 hours
  Caspase-3/-7 Activation: 270.553
[2]; ABBV-467 0.01 nM, 3 hours
  Caspase-3/-7 Activation: 259.728
[2]; ABBV-467 0.01 nM, 4 hours
  Caspase-3/-7 Activation: 277.62
[2]; ABBV-467 0.01 nM, 5 hours
  Caspase-3/-7 Activation: 289.07
[2]; ABBV-467 0.01 nM, 6 hours
  Caspase-3/-7 Activation: 301.552
[2]; ABBV-467 0.01 nM, 7 hours
  Caspase-3/-7 Activation: 311.821
[2]; ABBV-467 0.01 nM, 8 hours
  Caspase-3/-7 Activation: 334.669
[2]; ABBV-467 0.01 nM, 9 hours
  Caspase-3/-7 Activation: 348.392
[2]; ABBV-467 0.01 nM, 10 hours
  Caspase-3/-7 Activation: 365.28
[2]; ABBV-467 0.01 nM, 11 hours
  Caspase-3/-7 Activation: 391.805
[2]; ABBV-467 0.01 nM, 12 hours
  Caspase-3/-7 Activation: 438.261
[2]; ABBV-467 0.01 nM, 13 hours
  Caspase-3/-7 Activation: 454.339
[2]; ABBV-467 0.01 nM, 14 hours
  Caspase-3/-7 Activation: 484.741
[2]; ABBV-467 0.1 nM, 0 hours
  Caspase-3/-7 Activation: 225.588
[2]; ABBV-467 0.1 nM, 1 hours
  Caspase-3/-7 Activation: 235.59
[2]; ABBV-467 0.1 nM, 2 hours
  Caspase-3/-7 Activation: 274.692
[2]; ABBV-467 0.1 nM, 3 hours
  Caspase-3/-7 Activation: 258.216
[2]; ABBV-467 0.1 nM, 4 hours
  Caspase-3/-7 Activation: 255.874
[2]; ABBV-467 0.1 nM, 5 hours
  Caspase-3/-7 Activation: 269.765
[2]; ABBV-467 0.1 nM, 6 hours
  Caspase-3/-7 Activation: 277.457
[2]; ABBV-467 0.1 nM, 7 hours
  Caspase-3/-7 Activation: 313.21
[2]; ABBV-467 0.1 nM, 8 hours
  Caspase-3/-7 Activation: 322.526
[2]; ABBV-467 0.1 nM, 9 hours
  Caspase-3/-7 Activation: 349.891
[2]; ABBV-467 0.1 nM, 10 hours
  Caspase-3/-7 Activation: 382.789
[2]; ABBV-467 0.1 nM, 11 hours
  Caspase-3/-7 Activation: 408.8
[2]; ABBV-467 0.1 nM, 12 hours
  Caspase-3/-7 Activation: 435.203
[2]; ABBV-467 0.1 nM, 13 hours
  Caspase-3/-7 Activation: 463.242
[2]; ABBV-467 0.1 nM, 14 hours
  Caspase-3/-7 Activation: 524.814
[2]; ABBV-467 1 nM, 0 hours
  Caspase-3/-7 Activation: 207.355
[2]; ABBV-467 1 nM, 1 hours
  Caspase-3/-7 Activation: 234.094
[2]; ABBV-467 1 nM, 2 hours
  Caspase-3/-7 Activation: 278.959
[2]; ABBV-467 1 nM, 3 hours
  Caspase-3/-7 Activation: 292.278
[2]; ABBV-467 1 nM, 4 hours
  Caspase-3/-7 Activation: 394.898
[2]; ABBV-467 1 nM, 5 hours
  Caspase-3/-7 Activation: 570.705
[2]; ABBV-467 1 nM, 6 hours
  Caspase-3/-7 Activation: 716.626
[2]; ABBV-467 1 nM, 7 hours
  Caspase-3/-7 Activation: 887.617
[2]; ABBV-467 1 nM, 8 hours
  Caspase-3/-7 Activation: 1099.54
[2]; ABBV-467 1 nM, 9 hours
  Caspase-3/-7 Activation: 1287.07
[2]; ABBV-467 1 nM, 10 hours
  Caspase-3/-7 Activation: 1419.14
[2]; ABBV-467 1 nM, 11 hours
  Caspase-3/-7 Activation: 1610.17
[2]; ABBV-467 1 nM, 12 hours
  Caspase-3/-7 Activation: 1722.67
[2]; ABBV-467 1 nM, 13 hours
  Caspase-3/-7 Activation: 1826.71
[2]; ABBV-467 1 nM, 14 hours
  Caspase-3/-7 Activation: 1859.69
[2]; ABBV-467 10 nM, 0 hours
  Caspase-3/-7 Activation: 233.175
[2]; ABBV-467 10 nM, 1 hours
  Caspase-3/-7 Activation: 264.944
[2]; ABBV-467 10 nM, 2 hours
  Caspase-3/-7 Activation: 553.515
[2]; ABBV-467 10 nM, 3 hours
  Caspase-3/-7 Activation: 945.842
[2]; ABBV-467 10 nM, 4 hours
  Caspase-3/-7 Activation: 1332.17
[2]; ABBV-467 10 nM, 5 hours
  Caspase-3/-7 Activation: 1650.46
[2]; ABBV-467 10 nM, 6 hours
  Caspase-3/-7 Activation: 1813.36
[2]; ABBV-467 10 nM, 7 hours
  Caspase-3/-7 Activation: 2014.88
[2]; ABBV-467 10 nM, 8 hours
  Caspase-3/-7 Activation: 2144.69
[2]; ABBV-467 10 nM, 9 hours
  Caspase-3/-7 Activation: 2203.21
[2]; ABBV-467 10 nM, 10 hours
  Caspase-3/-7 Activation: 2258.19
[2]; ABBV-467 10 nM, 11 hours
  Caspase-3/-7 Activation: 2283.58
[2]; ABBV-467 10 nM, 12 hours
  Caspase-3/-7 Activation: 2310.22
[2]; ABBV-467 10 nM, 13 hours
  Caspase-3/-7 Activation: 2302.82
[2]; ABBV-467 10 nM, 14 hours
  Caspase-3/-7 Activation: 2302.28
[2]; ABBV-467 100 nM, 0 hours
  Caspase-3/-7 Activation: 208.608
[2]; ABBV-467 100 nM, 1 hours
  Caspase-3/-7 Activation: 451.845
[2]; ABBV-467 100 nM, 2 hours
  Caspase-3/-7 Activation: 1550.74
[2]; ABBV-467 100 nM, 3 hours
  Caspase-3/-7 Activation: 2054.45
[2]; ABBV-467 100 nM, 4 hours
  Caspase-3/-7 Activation: 2191.43
[2]; ABBV-467 100 nM, 5 hours
  Caspase-3/-7 Activation: 2357.93
[2]; ABBV-467 100 nM, 6 hours
  Caspase-3/-7 Activation: 2394.62
[2]; ABBV-467 100 nM, 7 hours
  Caspase-3/-7 Activation: 2491.07
[2]; ABBV-467 100 nM, 8 hours
  Caspase-3/-7 Activation: 2431.58
[2]; ABBV-467 100 nM, 9 hours
  Caspase-3/-7 Activation: 2418.59
[2]; ABBV-467 100 nM, 10 hours
  Caspase-3/-7 Activation: 2357.71
[2]; ABBV-467 100 nM, 11 hours
  Caspase-3/-7 Activation: 2329.52
[2]; ABBV-467 100 nM, 12 hours
  Caspase-3/-7 Activation: 2294.27
[2]; ABBV-467 100 nM, 13 hours
  Caspase-3/-7 Activation: 2277.8
[2]; ABBV-467 100 nM, 14 hours
  Caspase-3/-7 Activation: 2211.71
[2]; ABBV-467 100 nM, 15 hours
  Caspase-3/-7 Activation: 2210.67
